In patent publication US7781410B2 (priority 2006, dated 2010):

What follows are compounds tested on Sebocytes (assay: cells). Settings: 2,2′-dihydroxychalcone 0.3 μM; Green Tea Extract 0.0 μg/mL.
Type: cell-based, human

| SMILES | % Cholera Toxin Reduction [%] |
| --- | --- |
| O=C(/C=C/c1ccccc1O)c1ccccc1O [2,2′-dihydroxy-chalcone] | 14.3 |

Same assay, conditions: 2,2′-dihydroxychalcone 1.0 μM; Green Tea Extract 0.0 μg/mL

| SMILES | % Cholera Toxin Reduction [%] |
| --- | --- |
| O=C(/C=C/c1ccccc1O)c1ccccc1O [2,2′-dihydroxy-chalcone] | 38.2 |

Same assay, conditions: 2,2′-dihydroxychalcone 3.0 μM; Green Tea Extract 0.0 μg/mL

| SMILES | % Cholera Toxin Reduction [%] |
| --- | --- |
| O=C(/C=C/c1ccccc1O)c1ccccc1O [2,2′-dihydroxy-chalcone] | 50.8 |

Same assay, conditions: Homo sapiens, read-out: % Reduction in Lipid Synthesis in Sebocytes [3 uM]

| SMILES | inhibition at 3 µM [%] |
| --- | --- |
| COc1ccc(C(=O)/C=C/c2ccc(OC)c(OC)c2)c(O)c1 | 12.4 |
| O=C(/C=C/c1ccc(O)c(O)c1)c1ccc(O)cc1O | 12.8 |
| COc1cc(O)c(C(=O)/C=C/c2ccc(OC)c(OC)c2)c(O)c1 | 20.5 |
| COc1cc(O)c(C(=O)/C=C/c2ccc(OC)c(O)c2)c(OC)c1 | 25.6 |
| O=C1c2ccc(O)cc2OC1Cc1ccc(O)c(O)c1 (centres unmarked) | 26.9 |
| COc1ccc(/C=C/C(=O)c2c(O)cc(OC)cc2OC)cc1 | 28.4 |
| COc1ccc(O)c(C(=O)/C=C/c2cccc(OC)c2OC)c1 | 28.7 |
| O=C(/C=C/c1ccccc1O)c1ccccc1O [drawing 18] | 47.3 |

Same assay, conditions: compound at 3 uM; sebocytes

| SMILES | % Reduction in Lipid Synthesis in Sebocytes [3 uM] |
| --- | --- |
| O=C(/C=C/c1ccc(O)c(O)c1)c1c(O)cc(O)cc1O | Not Active |
| COc1cc(OC)c(C(=O)/C=C/c2ccc(OC)c(OC)c2)c(OC)c1 | Not Active |
| COc1cc(OC)c(C(=O)/C=C/c2ccc(O)cc2)c(OC)c1 | Not Active |
| COc1ccc(C(=O)/C=C/c2cc(OC)c(OC)c(OC)c2)c(O)c1 | Not Active |
| COc1cc(OC)c(C(=O)/C=C/c2ccc(O)cc2OC)c(OC)c1 | Not Active |
| COc1cc(OC)c(C(=O)/C=C/c2ccc(OC)c(O)c2)c(OC)c1 | Not Active |
| COc1cc(/C=C/C(=O)c2ccc(O)cc2C)cc(OC)c1OC | Not Active |
| COc1cccc(/C=C/C(=O)c2ccc(O)cc2O)c1OC | Not Active |
| COc1ccc(/C=C/C(=O)c2ccc(O)cc2O)cc1OC | Not Active |
| COc1cc(/C=C/C(=O)c2ccc(O)cc2O)ccc1O | Not Active |
| COc1ccc(/C=C/C(=O)c2c(O)cc(OC)c(OC)c2OC)c(OC)c1 | Not Active |
| COc1cc(O)c(C(=O)/C=C/c2ccc(O)c(OC)c2)c(OC)c1 | Not Active |
| COc1ccc(C(=O)/C=C/c2cccc(OC)c2OC)c(O)c1 | Not Active |
| O=C(/C=C/c1ccc(O)c(O)c1)c1ccc(OC2O[C@H](CO)C(O)[C@H](O)C2O)c(O)c1O (some centres unmarked) | Not Active |
| COc1ccc(C(=O)/C=C/c2ccc(OC)cc2OC)c(O)c1 | Not Active |
| COc1c(/C=C/C(=O)c2ccc(O)cc2)ccc(O)c1O | Not Active |
| COc1ccc(/C=C/C(=O)c2cc(OC)ccc2O)c(OC)c1 | Not Active |
| COc1ccc(O)c(C(=O)/C=C/c2ccc(OC)c(OC)c2)c1 | Not Active |
